Blank lines part the entries; values can stand above or below the molecule they belong to. Activity calls are given as the source filed them. The rule behind the calls is not given here.
How the values were obtained:
MCF7 [1] = assay: cells; settings: Homo sapiens, MCF7, 24 h
Description: Cytotoxicity against human MCF7 cells after 24 hrs by MTT assay

HT-29 = assay: Cytotoxicity against human HT-29 cells after 24 hrs by MTT assay; format: functional, cell-based; settings: HT-29, 24 h
MCF7 [2] = assay: Induction of apoptosis in human MCF7 cells assessed as early apoptotic cells at 50 nM after 72 hrs by annexin V-FITC/propidium iodide staining based FACS flow cytometry (reference value: 4 %); format: functional
MCF7 [3] = assay: Induction of apoptosis in human MCF7 cells assessed as accumulation of caspase-3 cleavage product at 50 nM after 24 to 72 hrs by Western blotting analysis
MCF7 [4] = assay: Induction of apoptosis in human MCF7 cells assessed as cytochrome C release at 50 nM after 72 hrs by Western blotting analysis; format: functional, cell-based
[5] = Cytotoxicity against human HGF cells after 24 hrs by MTT assay; format: cell-based
[6] = target: T1, Tumour suppressor p53/oncoprotein Mdm2 (Homo sapiens) (UniProt P04637+Q00987); assay: Inhibition of MDM2-p53 interaction in human MCF7 cells assessed as p53 accumulation at 50 nM after 24 to 72 hrs by Western blot analysis; format: cell-based
T1 sequence (P04637 whole entry, looked up): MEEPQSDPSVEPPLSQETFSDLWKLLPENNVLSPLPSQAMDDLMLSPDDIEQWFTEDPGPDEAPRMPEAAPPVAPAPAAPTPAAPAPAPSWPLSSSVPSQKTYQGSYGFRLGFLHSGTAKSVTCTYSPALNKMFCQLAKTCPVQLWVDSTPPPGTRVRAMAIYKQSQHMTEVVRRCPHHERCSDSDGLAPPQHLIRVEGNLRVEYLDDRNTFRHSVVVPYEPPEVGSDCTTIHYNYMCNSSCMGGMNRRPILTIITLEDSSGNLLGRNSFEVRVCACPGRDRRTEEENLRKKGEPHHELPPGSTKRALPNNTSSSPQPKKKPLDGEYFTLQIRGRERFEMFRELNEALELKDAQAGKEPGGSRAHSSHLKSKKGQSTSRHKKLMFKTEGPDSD
T1 sequence (Q00987 whole entry, looked up): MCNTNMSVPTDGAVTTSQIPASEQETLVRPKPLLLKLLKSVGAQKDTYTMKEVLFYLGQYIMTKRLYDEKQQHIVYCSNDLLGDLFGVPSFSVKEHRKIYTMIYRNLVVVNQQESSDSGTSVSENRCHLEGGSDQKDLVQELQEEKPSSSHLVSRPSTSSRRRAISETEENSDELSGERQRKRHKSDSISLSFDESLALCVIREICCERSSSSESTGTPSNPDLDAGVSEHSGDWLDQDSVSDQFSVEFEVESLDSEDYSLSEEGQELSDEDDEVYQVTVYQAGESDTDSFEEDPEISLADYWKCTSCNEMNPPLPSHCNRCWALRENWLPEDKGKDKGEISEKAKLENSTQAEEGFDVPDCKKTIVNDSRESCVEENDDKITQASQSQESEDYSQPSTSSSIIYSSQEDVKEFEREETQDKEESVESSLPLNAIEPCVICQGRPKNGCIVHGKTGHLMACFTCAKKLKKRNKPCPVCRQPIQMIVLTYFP

PC-3 = assay: cells; settings: Homo sapiens, PC-3, 24 h
Description: Cytotoxicity against human PC3 cells after 24 hrs by MTT assay

MCF7 [7] = assay: Induction of apoptosis in human MCF7 cells assessed as reduction in Bcl-xL expression level at 50 nM after 24 to 72 hrs by Western blotting analysis; format: functional, cell-based
MCF7 [8] = assay: Induction of apoptosis in human MCF7 cells assessed as increase in Bcl-xS expression level at 50 nM after 24 to 72 hrs by Western blotting analysis; format: functional, cell-based
MCF7 [9] = assay: Induction of apoptosis in human MCF7 cells assessed as early apoptotic cells at 50 nM after 48 hrs by annexin V-FITC/propidium iodide staining based FACS flow cytometry (reference value: 4 %); format: functional
MCF7 [10] = assay: Cell cycle arrest in human MCF7 cells assessed as accumulation at G2M phase at 50 to 5000 nM after 24 hrs by propidium iodide staining-based FACS analysis relative to control; format: functional
U-937 = assay: Cytotoxicity against human U937 cells after 24 hrs by MTT assay; format: functional, cell-based; settings: U-937, 24 h
MCF7 [11] = assay: Cell cycle arrest in human MCF7 cells assessed as accumulation at G2M phase at 50 nM after 24 to 72 hrs by propidium iodide staining-based FACS analysis relative to control; format: functional
[12] = Cytotoxicity against human Calu cells after 24 hrs by MTT assay; format: functional, cell-based
MCF7 [13] = assay: Cell cycle arrest in human MCF7 cells assessed as accumulation at S phase at 50 to 5000 nM after 24 hrs by propidium iodide staining-based FACS analysis relative to control; format: functional
MCF7 [14] = assay: Induction of apoptosis in human MCF7 cells assessed as increase in p27 expression level at 50 nM by Western blotting analysis; format: functional, cell-based; settings: TDE = time-dependent effect
[15] = Ratio of Doxorubicin IC50 to compound IC50 against human Calu cells; format: functional
[16] = target: T1, Tumour suppressor p53/oncoprotein Mdm2 (Homo sapiens); assay: Inhibition of MDM2-p53 interaction in human MCF7 cells assessed as MDM2 accumulation at 50 nM after 24 to 72 hrs by Western blot analysis; format: cell-based
HepG2 = assay: cells; settings: Homo sapiens, HepG2, 24 h
Description: Cytotoxicity against human HepG2 cells after 24 hrs by MTT assay

MCF7 [17] = assay: Induction of apoptosis in human MCF7 cells assessed as increase in p53 expression level at 50 nM by Western blotting analysis; format: functional, cell-based; settings: TDE = time-dependent effect
MCF7 [18] = assay: Cell cycle arrest in human MCF7 cells assessed as accumulation at G1 phase at 50 nM after 24 to 72 hrs by propidium iodide staining-based FACS analysis relative to control; format: functional
MCF7 [19] = assay: Cell cycle arrest in human MCF7 cells assessed as accumulation at S phase at 50 nM after 24 to 72 hrs by propidium iodide staining-based FACS analysis relative to control; format: functional
MCF7 [20] = assay: Cell cycle arrest in human MCF7 cells assessed as accumulation at G1 phase at 50 to 5000 nM after 24 hrs by propidium iodide staining-based FACS analysis relative to control; format: functional
MCF7 [21] = assay: Induction of apoptosis in human MCF7 cells assessed as accumulation at subG1 phase at 50 nM by propidium iodide staining-based FACS analysis; format: functional, cell-based; settings: TDE = time-dependent effect
[22] = target: T1, Tumour suppressor p53/oncoprotein Mdm2 (Homo sapiens); assay: Inhibition of MDM2-p53 interaction in human MCF7 cells assessed as reduction in p53 level bound to MDM2 after 24 to 48 hrs by immunoprecipitation assay; format: cell-based
MCF7 [23] = assay: Induction of apoptosis in human MCF7 cells assessed as increase in p21 expression level at 50 nM by Western blotting analysis; format: functional, cell-based; settings: TDE = time-dependent effect
[24] = target: T1, Tumour suppressor p53/oncoprotein Mdm2 (Homo sapiens); assay: Inhibition of MDM2-p53 interaction in human MCF7 cells after 72 hrs by immunoprecipitation assay; format: cell-based
[25] = Cytotoxicity against human C643 cells after 24 hrs by MTT assay; settings: C643, 24 h

IC50 (MCF7 [1]): 2150 nM
SMILES: CCOC(=O)[C@@H]1CS[C@@]2(C(=O)Nc3ccccc32)N1C(=O)c1ccc(Cl)cc1
IC50 (HT-29): 3690 nM

IC50 (MCF7 [1]): 2120 nM
SMILES: CCOC(=O)[C@@H]1CS[C@@]2(C(=O)Nc3ccc(C)cc32)N1C(=O)c1ccc(Cl)cc1
IC50 (HT-29): 1090 nM

IC50 (MCF7 [1]): 900 nM
SMILES: CCOC(=O)[C@@H]1CS[C@@]2(C(=O)Nc3ccc(Br)cc32)N1C(=O)c1ccc(Cl)cc1
IC50 (HT-29): 110 nM

IC50 (MCF7 [1]): 3000 nM
SMILES: CCOC(=O)[C@@H]1CS[C@]2(C(=O)Nc3ccc(Br)cc32)N1C(=O)c1ccc(Cl)cc1
IC50 (HT-29): 2000 nM

IC50 (MCF7 [1]): 4520 nM
SMILES: CCOC(=O)[C@@H]1CS[C@@]2(C(=O)N(C)c3ccccc32)N1C(=O)c1ccc(Cl)cc1
IC50 (HT-29): 180 nM

IC50 (MCF7 [1]): 1230 nM
SMILES: CCOC(=O)[C@@H]1CS[C@@]2(C(=O)N(C)c3ccc(C)cc32)N1C(=O)c1ccc(Cl)cc1
IC50 (HT-29): 120 nM

IC50 (MCF7 [1]): 520 nM
SMILES: CCOC(=O)[C@@H]1CS[C@@]2(C(=O)N(C)c3ccc(Br)cc32)N1C(=O)c1ccc(Cl)cc1
IC50 (HT-29): 80 nM

IC50 (MCF7 [1]): 270 nM
SMILES: CCOC(=O)[C@@H]1CS[C@@]2(C(=O)N(C)c3ccc(Br)cc32)N1C(=O)Cc1ccc(Cl)cc1
IC50 (HT-29): 360 nM

IC50 (MCF7 [1]): 310 nM
SMILES: CCOC(=O)[C@@H]1CS[C@@]2(C(=O)N(C)c3ccc(Br)cc32)N1C(=O)c1ccccc1
IC50 (HT-29): 210 nM

IC50 (MCF7 [1]): 60 nM
SMILES: CCOC(=O)[C@@H]1CS[C@@]2(C(=O)N(C)c3ccc(Br)cc32)N1C(=O)c1ccc(C)cc1
IC50 (HT-29): 90 nM

IC50 (MCF7 [1]): 1010 nM
SMILES: CCOC(=O)[C@@H]1CS[C@]2(N1)C(=O)N(C(=O)c1ccc(Cl)cc1)c1ccccc12
IC50 (HT-29): 1030 nM

IC50 (MCF7 [1]): 3460 nM
SMILES: CCOC(=O)[C@@H]1CS[C@]2(N1)C(=O)N(C(=O)c1ccc(Cl)cc1)c1ccc(C)cc12
IC50 (HT-29): 230 nM

IC50 (MCF7 [1]): 150 nM
SMILES: CCOC(=O)[C@@H]1CS[C@]2(N1)C(=O)N(C(=O)c1ccc(Cl)cc1)c1ccc(Br)cc12
IC50 (HT-29): 20 nM

SMILES: CCOC(=O)[C@@H]1CS[C@]2(N1)C(=O)N(C(=O)C1CCCCC1)c1ccc(Br)cc12
IC50 (HT-29): 1400 nM

SMILES: CCOC(=O)C1=N[C@@]2(SC1)C(=O)N(C(=O)C1CCCCC1)c1ccc(Br)cc12
IC50 (HT-29): 850 nM

IC50 (MCF7 [1]): 4810 nM
SMILES: CCOC(=O)[C@@H]1CS[C@@]2(C(=O)Nc3ccc(C)cc32)N1C(=O)Cc1ccc(Cl)cc1
IC50 (HT-29): 780 nM

IC50 (MCF7 [1]): 2900 nM
SMILES: CCOC(=O)[C@@H]1CS[C@@]2(C(=O)Nc3ccc(Br)cc32)N1C(=O)Cc1ccc(Cl)cc1
IC50 (HT-29): 660 nM

SMILES: O=C1C2CSC3(C(=O)Nc4ccccc43)N2C(=O)N1Cc1ccc(Cl)cc1 (configuration not stated)
IC50 (MCF7 [1]): 1210 nM
IC50 (HT-29): 1600 nM

IC50 (MCF7 [1]): > 5000 nM
SMILES: CCOC(=O)[C@@H]1CS[C@@]2(C(=O)Nc3ccccc32)N1C(=O)Cc1ccc(Cl)cc1
IC50 (HT-29): 1000 nM

inhibition [6]: Active
IC50 (PC-3): 410 nM
IC50 (MCF7 [1]): 40 nM
inhibition [16]: Active
IC50 (HepG2): 140 nM
inhibition [22]: Active
inhibition [24]: inactive
SMILES: CCOC(=O)[C@@H]1CS[C@@]2(C(=O)N(C)c3ccc(Br)cc32)N1C(=O)C1CCCCC1 (mixture of isomers)
Activity (MCF7 [2]): 12%
Activity (MCF7 [3]): Active
Activity (MCF7 [4]): Active
IC50 [5]: 1600 nM
Activity (MCF7 [7]): Active
Activity (MCF7 [8]): Active
Activity (MCF7 [9]): 10%
Activity (MCF7 [10]): inactive
IC50 (U-937): 70 nM
Activity (MCF7 [11]): inactive
IC50 (HT-29): 70 nM
IC50 [12]: 100 nM
Activity (MCF7 [13]): inactive
Activity (MCF7 [14]): tde
Ratio IC50 [15]: 18
Activity (MCF7 [17]): tde
Activity (MCF7 [18]): inactive
Activity (MCF7 [19]): inactive
Activity (MCF7 [20]): inactive
Activity (MCF7 [21]): tde
Activity (MCF7 [23]): tde
IC50 [25]: 550 nM

IC50 (MCF7 [1]): 1200 nM
SMILES: CCOC(=O)[C@@H]1CS[C@@]2(C(=O)N(C)c3ccc(C)cc32)N1C(=O)C1CCCCC1 (mixture of isomers)
IC50 (HT-29): 1100 nM

IC50 (MCF7 [1]): 2300 nM
SMILES: CCOC(=O)[C@@H]1CS[C@@]2(C(=O)N(C)c3ccccc32)N1C(=O)C1CCCCC1 (mixture of isomers)
IC50 (HT-29): 1900 nM

IC50 (MCF7 [1]): 220 nM
SMILES: CCOC(=O)[C@@H]1CS[C@@]2(C(=O)Nc3ccc(Br)cc32)N1C(=O)C1CCCCC1 (mixture of isomers)
IC50 (HT-29): 560 nM

IC50 (MCF7 [1]): 2010 nM
SMILES: CN1C(=O)[C@@]2(SC[C@@H](C(=O)O)N2C(=O)C2CCCCC2)c2cc(Br)ccc21 (mixture of isomers)
IC50 (HT-29): 1900 nM

IC50 (PC-3): 30300 nM
IC50 (MCF7 [1]): 2900 nM
IC50 (HepG2): 10200 nM
SMILES: COc1ccc(C2=N[C@@H](c3ccc(Cl)cc3)[C@@H](c3ccc(Cl)cc3)N2C(=O)N2CCNC(=O)C2)c(OC(C)C)c1 (relative stereo) [NUTLIN-3]
IC50 [5]: 1400 nM
IC50 (U-937): 15600 nM
IC50 [12]: 27200 nM
IC50 [25]: 23000 nM

IC50 (MCF7 [1]): 860 nM
SMILES: CCOC(=O)C1=N[C@@]2(SC1)C(=O)N(C(=O)c1ccc(Cl)cc1)c1ccc(Br)cc12 (single isomer, unassigned)
IC50 (HT-29): 200 nM

IC50 (PC-3): 750 nM
IC50 (HepG2): 80 nM
SMILES: COc1cccc2c1C(=O)c1c(O)c3c(c(O)c1C2=O)C[C@@](O)(C(=O)CO)C[C@@H]3O[C@H]1C[C@H](N)[C@H](O)[C@H](C)O1 [DOXORUBICIN]
IC50 [5]: 500 nM
IC50 (U-937): 120 nM
IC50 [12]: 1810 nM
